Laboratory results from publication PMC9783573, “Introduction of a SiFA Moiety into the D-Glutamate Chain of DOTA-PP-F11N Results in Radiohybrid-Based CCK-2R-Targeted Compounds with Improved Pharmacokinetics In Vivo” (Pharmaceuticals, 2022).
Starred links: 1 amine or outer side, 2 acyl side, 3 side chain; linkers in the order of their positions; H or OH if unused. Non-standard residues stand in square brackets, D forms with d. Residues, ends and D or L forms follow the SMILES beside them. *: point of attachment. X1 = O=C(O)CN1CCN(CC(=O)O)CCN([C@H](CCC(=O)*)C(=O)O)CCN(CC(=O)O)CC1; Benzoyl(4-SiFtBu2) = CC(C)(C)[Si](F)(c1ccc(C(=O)*)cc1)C(C)(C)C; d(γGlu) = O=C(O)[C@@H](CCC(=O)[*:2])N[*:1]; Nle = CCCC[C@H](N)C(=O)O; dDap = NC[C@@H](N)C(=O)O

Experiment: Lipophilicity, n-octanol/PBS (pH 7.4) distribution coefficient
Assay type: physicochemical
Conditions: 177Lu-labelled peptide; n-octanol/PBS pH 7.4; read-out: logD7.4
Experimental: Lipophilicity (depicted as octanol-phosphate-buffered saline solution (PBS, pH = 7.4) distribution coefficient, logD7.4) was determined via dissolving the ^177Lu-labelled peptide (approx. 1 MBq) in a mixture (1/1, v/v) of n-octanol and PBS. The suspension was vortexed in a reaction vial (1.5 mL) for 3 min at RT and the vial was centrifuged at 9000× […] for 5 min (Biofuge 15, Heraus Sepatech GmbH, Osterode, Germany). 200 μL aliquots of both layers were measured separately in a γ-counter (Perkin Elmer, Waltham, MA, USA). The experiment was repeated at least five times.

SMILES | logD
CCCC[C@H](NC(=O)[C@H](Cc1c[nH]c2ccccc12)NC(=O)CNC(=O)[C@H](Cc1ccc(O)cc1)NC(=O)[C@H](C)NC(=O)[C@@H](CNC(=O)c1ccc([Si](F)(C(C)(C)C)C(C)(C)C)cc1)NC(=O)CC[C@@H](NC(=O)CC[C@@H](NC(=O)CC[C@@H](NC(=O)CC[C@@H](NC(=O)CC[C@@H](NC(=O)CC[C@@H](NC(=O)CC[C@H](C(=O)O)N1CCN(CC(=O)O)CCN(CC(=O)O)CCN(CC(=O)O)CC1)C(=O)O)C(=O)O)C(=O)O)C(=O)O)C(=O)O)C(=O)O)C(=O)N[C@@H](CC(=O)O)C(=O)N[C@@H](Cc1ccccc1)C(N)=O [[nat/177Lu]Lu-(R)-DOTAGA-rhCCK-10, metal not drawn] ({X1-d(γGlu)-d(γGlu)-d(γGlu)-d(γGlu)-d(γGlu)-d(γGlu)}-[dDap](Benzoyl(4-SiFtBu2))AYGW[Nle]DF-NH2) | -2.15 ± 0.08
CCCC[C@H](NC(=O)[C@H](Cc1c[nH]c2ccccc12)NC(=O)CNC(=O)[C@H](Cc1ccc(O)cc1)NC(=O)[C@H](C)NC(=O)[C@@H](CCC(=O)O)NC(=O)[C@@H](CCC(=O)O)NC(=O)[C@@H](CCC(=O)O)NC(=O)[C@@H](CCC(=O)O)NC(=O)[C@@H](CCC(=O)O)NC(=O)[C@@H](CNC(=O)c1ccc([Si](F)(C(C)(C)C)C(C)(C)C)cc1)NC(=O)[C@@H](CCC(=O)O)NC(=O)CC[C@H](C(=O)O)N1CCN(CC(=O)O)CCN(CC(=O)O)CCN(CC(=O)O)CC1)C(=O)N[C@@H](CC(=O)O)C(=O)N[C@@H](Cc1ccccc1)C(N)=O [[nat/177Lu]Lu-(R)-DOTAGA-rhCCK-6, metal not drawn] (X1-[dE][dDap](Benzoyl(4-SiFtBu2))[dE][dE][dE][dE][dE]AYGW[Nle]DF-NH2) | -2.22 ± 0.08
CCCC[C@H](NC(=O)[C@H](Cc1c[nH]c2ccccc12)NC(=O)CNC(=O)[C@H](Cc1ccc(O)cc1)NC(=O)[C@H](C)NC(=O)[C@@H](CCC(=O)O)NC(=O)[C@@H](CCC(=O)O)NC(=O)[C@@H](CCC(=O)O)NC(=O)[C@@H](CCC(=O)O)NC(=O)[C@@H](CNC(=O)c1ccc([Si](F)(C(C)(C)C)C(C)(C)C)cc1)NC(=O)[C@@H](CCC(=O)O)NC(=O)[C@@H](CCC(=O)O)NC(=O)CC[C@H](C(=O)O)N1CCN(CC(=O)O)CCN(CC(=O)O)CCN(CC(=O)O)CC1)C(=O)N[C@@H](CC(=O)O)C(=O)N[C@@H](Cc1ccccc1)C(N)=O [[nat/177Lu]Lu-(R)-DOTAGA-rhCCK-5, metal not drawn] (X1-[dE][dE][dDap](Benzoyl(4-SiFtBu2))[dE][dE][dE][dE]AYGW[Nle]DF-NH2) | -2.67 ± 0.05
CCCC[C@H](NC(=O)[C@H](Cc1c[nH]c2ccccc12)NC(=O)CNC(=O)[C@H](Cc1ccc(O)cc1)NC(=O)[C@H](C)NC(=O)[C@@H](CCC(=O)O)NC(=O)[C@@H](CCC(=O)O)NC(=O)[C@@H](CCC(=O)O)NC(=O)[C@@H](CCC(=O)O)NC(=O)[C@@H](CCC(=O)O)NC(=O)[C@@H](CCC(=O)O)NC(=O)[C@@H](CNC(=O)c1ccc([Si](F)(C(C)(C)C)C(C)(C)C)cc1)NC(=O)CC[C@H](C(=O)O)N1CCN(CC(=O)O)CCN(CC(=O)O)CCN(CC(=O)O)CC1)C(=O)N[C@@H](CC(=O)O)C(=O)N[C@@H](Cc1ccccc1)C(N)=O [[nat/177Lu]Lu-(R)-DOTAGA-rhCCK-7, metal not drawn] (X1-[dDap](Benzoyl(4-SiFtBu2))[dE][dE][dE][dE][dE][dE]AYGW[Nle]DF-NH2) | -2.63 ± 0.08
CCCC[C@H](NC(=O)[C@H](Cc1c[nH]c2ccccc12)NC(=O)CNC(=O)[C@H](Cc1ccc(O)cc1)NC(=O)[C@H](C)NC(=O)CC[C@@H](NC(=O)CC[C@@H](NC(=O)CC[C@@H](NC(=O)CC[C@@H](NC(=O)CC[C@@H](NC(=O)CC[C@@H](NC(=O)CC[C@@H](NC(=O)[C@@H](CNC(=O)c1ccc([Si](F)(C(C)(C)C)C(C)(C)C)cc1)NC(=O)CC[C@H](C(=O)O)N1CCN(CC(=O)O)CCN(CC(=O)O)CCN(CC(=O)O)CC1)C(=O)O)C(=O)O)C(=O)O)C(=O)O)C(=O)O)C(=O)O)C(=O)O)C(=O)N[C@@H](CC(=O)O)C(=O)N[C@@H](Cc1ccccc1)C(N)=O [[nat/177Lu]Lu-(R)-DOTAGA-rhCCK-17, metal not drawn] | -2.1 ± 0.06
CCCC[C@H](NC(=O)[C@H](Cc1c[nH]c2ccccc12)NC(=O)CNC(=O)[C@H](Cc1ccc(O)cc1)NC(=O)[C@H](C)NC(=O)CC[C@@H](NC(=O)[C@@H](CNC(=O)c1ccc([Si](F)(C(C)(C)C)C(C)(C)C)cc1)NC(=O)CC[C@@H](NC(=O)CC[C@@H](NC(=O)CC[C@@H](NC(=O)CC[C@@H](NC(=O)CC[C@@H](NC(=O)CC[C@H](C(=O)O)N1CCN(CC(=O)O)CCN(CC(=O)O)CCN(CC(=O)O)CC1)C(=O)O)C(=O)O)C(=O)O)C(=O)O)C(=O)O)C(=O)O)C(=O)N[C@@H](CC(=O)O)C(=O)N[C@@H](Cc1ccccc1)C(N)=O [[nat/177Lu]Lu-(R)-DOTAGA-rhCCK-11, metal not drawn] ({X1-d(γGlu)-d(γGlu)-d(γGlu)-d(γGlu)-d(γGlu)}-[dDap](Benzoyl(4-SiFtBu2))[d(γGlu)]AYGW[Nle]DF-NH2) | -2.23 ± 0.07
CCCC[C@H](NC(=O)[C@H](Cc1c[nH]c2ccccc12)NC(=O)CNC(=O)[C@H](Cc1ccc(O)cc1)NC(=O)[C@H](C)NC(=O)CC[C@@H](NC(=O)CC[C@@H](NC(=O)CC[C@@H](NC(=O)CC[C@@H](NC(=O)CC[C@@H](NC(=O)[C@@H](CNC(=O)c1ccc([Si](F)(C(C)(C)C)C(C)(C)C)cc1)NC(=O)CC[C@@H](NC(=O)CC[C@H](C(=O)O)N1CCN(CC(=O)O)CCN(CC(=O)O)CCN(CC(=O)O)CC1)C(=O)O)C(=O)O)C(=O)O)C(=O)O)C(=O)O)C(=O)O)C(=O)N[C@@H](CC(=O)O)C(=O)N[C@@H](Cc1ccccc1)C(N)=O [[nat/177Lu]Lu-(R)-DOTAGA-rhCCK-15, metal not drawn] ({X1-d(γGlu)}-[dDap](Benzoyl(4-SiFtBu2))[d(γGlu)][d(γGlu)][d(γGlu)][d(γGlu)][d(γGlu)]AYGW[Nle]DF-NH2) | -2.5 ± 0.02
CCCC[C@H](NC(=O)[C@H](Cc1c[nH]c2ccccc12)NC(=O)CNC(=O)[C@H](Cc1ccc(O)cc1)NC(=O)[C@H](C)NC(=O)[C@@H](CCC(=O)O)NC(=O)[C@@H](CCC(=O)O)NC(=O)[C@@H](CCC(=O)O)NC(=O)[C@@H](CNC(=O)c1ccc([Si](F)(C(C)(C)C)C(C)(C)C)cc1)NC(=O)[C@@H](CCC(=O)O)NC(=O)[C@@H](CCC(=O)O)NC(=O)[C@@H](CCC(=O)O)NC(=O)CC[C@H](C(=O)O)N1CCN(CC(=O)O)CCN(CC(=O)O)CCN(CC(=O)O)CC1)C(=O)N[C@@H](CC(=O)O)C(=O)N[C@@H](Cc1ccccc1)C(N)=O [[nat/177Lu]Lu-(R)-DOTAGA-rhCCK-4, metal not drawn] (X1-[dE][dE][dE][dDap](Benzoyl(4-SiFtBu2))[dE][dE][dE]AYGW[Nle]DF-NH2) | -2.19 ± 0.08
CCCC[C@H](NC(=O)[C@H](Cc1c[nH]c2ccccc12)NC(=O)CNC(=O)[C@H](Cc1ccc(O)cc1)NC(=O)[C@H](C)NC(=O)CC[C@@H](NC(=O)CC[C@@H](NC(=O)[C@@H](CNC(=O)c1ccc([Si](F)(C(C)(C)C)C(C)(C)C)cc1)NC(=O)CC[C@@H](NC(=O)CC[C@@H](NC(=O)CC[C@@H](NC(=O)CC[C@@H](NC(=O)CC[C@H](C(=O)O)N1CCN(CC(=O)O)CCN(CC(=O)O)CCN(CC(=O)O)CC1)C(=O)O)C(=O)O)C(=O)O)C(=O)O)C(=O)O)C(=O)O)C(=O)N[C@@H](CC(=O)O)C(=O)N[C@@H](Cc1ccccc1)C(N)=O [[nat/177Lu]Lu-(R)-DOTAGA-rhCCK-12, metal not drawn] ({X1-d(γGlu)-d(γGlu)-d(γGlu)-d(γGlu)}-[dDap](Benzoyl(4-SiFtBu2))[d(γGlu)][d(γGlu)]AYGW[Nle]DF-NH2) | -2.34 ± 0.05
CCCC[C@H](NC(=O)[C@H](Cc1c[nH]c2ccccc12)NC(=O)CNC(=O)[C@H](Cc1ccc(O)cc1)NC(=O)[C@H](C)NC(=O)CC[C@@H](NC(=O)CC[C@@H](NC(=O)CC[C@@H](NC(=O)CC[C@@H](NC(=O)CC[C@@H](NC(=O)CC[C@@H](NC(=O)CC[C@@H](NC(=O)CC[C@@H](NC(=O)[C@@H](CNC(=O)c1ccc([Si](F)(C(C)(C)C)C(C)(C)C)cc1)NC(=O)CC[C@H](C(=O)O)N1CCN(CC(=O)O)CCN(CC(=O)O)CCN(CC(=O)O)CC1)C(=O)O)C(=O)O)C(=O)O)C(=O)O)C(=O)O)C(=O)O)C(=O)O)C(=O)O)C(=O)N[C@@H](CC(=O)O)C(=O)N[C@@H](Cc1ccccc1)C(N)=O [[nat/177Lu]Lu-(R)-DOTAGA-rhCCK-18, metal not drawn] | -2.16 ± 0.09
CCCC[C@H](NC(=O)[C@H](Cc1c[nH]c2ccccc12)NC(=O)CNC(=O)[C@H](Cc1ccc(O)cc1)NC(=O)[C@H](C)NC(=O)[C@@H](CCC(=O)O)NC(=O)[C@@H](CNC(=O)c1ccc([Si](F)(C(C)(C)C)C(C)(C)C)cc1)NC(=O)[C@@H](CCC(=O)O)NC(=O)[C@@H](CCC(=O)O)NC(=O)[C@@H](CCC(=O)O)NC(=O)[C@@H](CCC(=O)O)NC(=O)[C@@H](CCC(=O)O)NC(=O)CC[C@H](C(=O)O)N1CCN(CC(=O)O)CCN(CC(=O)O)CCN(CC(=O)O)CC1)C(=O)N[C@@H](CC(=O)O)C(=O)N[C@@H](Cc1ccccc1)C(N)=O [[nat/177Lu]Lu-(R)-DOTAGA-rhCCK-2, metal not drawn] (X1-[dE][dE][dE][dE][dE][dDap](Benzoyl(4-SiFtBu2))[dE]AYGW[Nle]DF-NH2) | -1.95 ± 0.09

Same assay, conditions: pH 7.4

SMILES | logD
CSCC[C@H](NC(=O)[C@H](Cc1c[nH]c2ccccc12)NC(=O)CNC(=O)[C@H](Cc1ccc(O)cc1)NC(=O)[C@H](C)NC(=O)CC[C@@H](NC(=O)CC[C@@H](NC(=O)CC[C@@H](NC(=O)CC[C@@H](NC(=O)CC[C@@H](NC(=O)CC[C@@H](NC(=O)CN1CCN(CC(=O)O)CCN(CC(=O)O)CCN(CC(=O)O)CC1)C(=O)O)C(=O)O)C(=O)O)C(=O)O)C(=O)O)C(=O)O)C(=O)N[C@@H](CC(=O)O)C(=O)N[C@@H](Cc1ccccc1)C(N)=O [[nat/177Lu]Lu-γ-CP04, metal not drawn] | -4.3 ± 0.08
